This passage reports EC50 results from US10774053B2, “HIV protease inhibitors” (Gilead Sciences, Inc., priority 2017, dated 2020).

This assay relates to HIV-1 (IIIB) in MT-4 cells. Description: microbe, parasite or virus in culture. The settings on record: Human immunodeficiency virus 1, IIIB, MT4, MT-4 cells, HIV-1; read-out: MT4 EC50. It is filed as cell-based.

Take `CC(C)(C)C[C@]1(c2ccc(-c3cnn(C(F)F)c3)cc2)NC(=N)N([C@H](COC(=O)N[C@@H]2CC23CC3)c2ccc(Cl)c(-n3ncnc3C(F)F)c2)C1=O` [Compound 341]: the EC50 – broadly, the concentration at which the effect is half-maximal – came out at 8.54 nM.

`Cn1ccc(-c2ccc([C@@]3(CC(C)(C)C)NC(=N)N([C@H](COC(=O)N[C@H]4CC4(F)F)c4ccc(Cl)c(-n5ncnc5C(F)F)c4)C3=O)cc2)n1` [Compound 296]: the EC50 was 8.57 nM.

Regarding `CC(C)(C)C[C@]1(c2ccc(-c3cnn(C(F)F)c3)cc2)NC(=N)N([C@H](COC(=O)NC2(C)CC2)c2ccc(Cl)c(-c3ccccn3)c2)C1=O` [Compound 47], the EC50 was found to be 60.9 nM.

Consider `C[C@H](NC(=O)OC[C@H](c1ccc(Cl)c(-n2ncnc2C(F)F)c1)N1C(=N)N[C@](CC(C)(C)C)(c2ccn3nccc3c2)C1=O)C(F)(F)F` [Compound 367], for which the EC50 came to 19 nM.

For `CC(C)(C)C[C@]1(c2ccc(-c3cnn(C(F)F)c3)c(F)c2)NC(=N)N([C@H](COC(=O)NCC(C)(F)F)c2ccc(Cl)c(-n3ncnc3C(F)F)c2)C1=O` [Compound 299], the EC50 amounted to 13 nM.

Turning to `CC(C)(C)C[C@]1(c2ccc(-c3ccc(OC(F)F)cc3)cc2)NC(=N)N([C@H](COC(=O)NC2(C(F)(F)F)CC2)c2ccc(Cl)c(-n3ncnc3C(F)F)c2)C1=O` [Compound 282], the EC50 was 62 nM.

As for `CC(C)(C)C[C@]1(c2ccc(-c3cnn(C4CC4)n3)cc2)NC(=N)N([C@H](CNC(=O)CC(F)(F)F)c2ccc(Cl)c(-n3ncnc3C(F)F)c2)C1=O` [Compound 383], the EC50 turned out to be 9.7 nM.

With `CC(C)(C)C[C@]1(c2ccc(-c3cnn(C(F)F)c3)cc2)NC(=N)N([C@H](COC(=O)N[C@@H]2C[C@@H]2F)c2ccc(Cl)c(-n3ncnc3C(F)F)c2)C1=O` [Compound 287], the EC50 came to 7.55 nM.

As for `CC(C)(C)C[C@]1(c2ccc(-c3cnn(C(F)F)c3)cc2)NC(=N)N([C@H](COC(=O)NC2(C(F)(F)F)CC2)c2ccc(C(N)=O)c(-c3ncnn3C(F)F)c2)C1=O` [Compound 141], the EC50 came out at 1020 nM.

On to `CC(C)(C)C[C@]1(c2ccc(-c3cnc(C#N)nc3)cc2)NC(=N)N([C@H](COC(=O)NC2(C(F)(F)F)CC2)c2ccc(Cl)c(-c3ncnn3C(F)F)c2)C1=O` [Compound 118], for which the 50% effective concentration (EC50) was determined as 16.4 nM.

Regarding `CC(C)(C)C[C@]1(c2ccc(-c3cnc(C(F)(F)F)nc3)cc2)NC(=N)N([C@H](COC(=O)NC2(C(F)(F)F)CC2)c2ccc(Cl)c(-c3ncnn3C(F)F)c2)C1=O` [Compound 122], the EC50 worked out at 25.4 nM.

With `CC(C)(C)C[C@]1(c2ccc(-n3cnnn3)c(F)c2)NC(=N)N([C@H](COC(=O)NC2(C(F)(F)F)CC2)c2ccc(Cl)c(-n3ncnc3C(F)F)c2)C1=O` [Compound 355], the concentration giving a half-maximal response (EC50) turned out to be 24.6 nM.

For the compound `CC(C)(C)C[C@]1(c2ccc(-c3cnn(C(F)F)c3)cc2)NC(=N)N([C@H](COC(=O)NC2CC2)c2ccc(Cl)c(-c3ncnn3C(F)F)c2)C1=O` [Compound 35], the EC50 turned out to be 98.1 nM.

As for `CN(C)C(=O)OC[C@H](c1ccc(Cl)c(-c2ncn[nH]2)c1)N1C(=N)N[C@](CC(C)(C)C)(c2ccc(-c3cnn(C(F)F)c3)cc2)C1=O` [Compound 81], the concentration giving a half-maximal response (EC50) is 31.6 nM.

Consider `CC(C)(C)C[C@]1(c2ccc(-c3cnn(C4CC4)c3)cc2)NC(=N)N([C@H](COC(=O)NC2(C(F)(F)F)CC2)c2ccc(Cl)c(-n3cncn3)c2)C1=O` [Compound 319], for which the EC50 came out at 17.8 nM.

For the compound `Cn1ccc(-c2ccc([C@@]3(CC(C)(C)C)NC(=N)N([C@H](COC(=O)NCC(F)(F)F)c4ccc(Cl)c(-n5ncnc5C(F)F)c4)C3=O)cc2)n1` [Compound 297], the EC50 turned out to be 10.3 nM.

As for `CC(C)(C)C[C@]1(c2ccc3nc(C(F)F)ccc3c2)NC(=N)N([C@H](COC(=O)NC2(C(F)(F)F)CC2)c2ccc(Cl)c(-n3ncnc3C(F)F)c2)C1=O` [Compound 354], the EC50 is 5.06 nM.

Consider `Cn1nccc1-c1ccc([C@@]2(CC(C)(C)C)NC(=N)N([C@H](COC(=O)NC3(C(F)(F)F)CC3)c3ccc(Cl)c(-n4ncnc4C(F)F)c3)C2=O)cc1` [Compound 205], for which the EC50 came out at 20.2 nM.

In the case of `CC(C)(C)C[C@]1(c2ccc(-c3cnn(C(F)F)c3)cc2)NC(=N)N([C@H](COC(=O)NC2(C(F)(F)F)CC2)c2ccc(Cl)c(-n3nccn3)c2)C1=O` [Compound 268], the concentration giving a half-maximal response (EC50) was 37.8 nM.

On to `Cc1ncsc1-c1ccc([C@@]2(CC(C)(C)C)NC(=N)N([C@H](COC(=O)NC3(C(F)(F)F)CC3)c3ccc(Cl)c(-n4ncnc4C(F)F)c3)C2=O)c(F)c1` [Compound 200], for which the EC50 amounted to 26.2 nM.

For `CC(C)(C)C[C@]1(c2ccc(-c3ccn(C(F)F)n3)cc2F)NC(=N)N([C@H](COC(=O)NC2(C(F)(F)F)CC2)c2ccc(Cl)c(-n3ncnc3C(F)F)c2)C1=O` [Compound 285], the EC50 amounted to 16.8 nM.

Turning to `[2H]C([2H])([2H])n1cnc(-c2cc([C@@H](COC(=O)NC(C)(C)C(F)F)N3C(=N)N[C@](C[C@@]4(C)CC4(F)F)(c4ccc(-c5cnn(C(F)F)c5)cc4)C3=O)ccc2Cl)n1` [Compound 96], the concentration giving a half-maximal response (EC50) was 83.7 nM.

For the compound `CC(C)(C)C[C@]1(c2ccc(C#CC(C)(C)S(C)(=O)=O)cc2)NC(=N)N([C@H](COC(=O)NC(C)(C)C(F)F)c2ccc(Cl)c(-n3cncn3)c2)C1=O` [Compound 377], the EC50 was determined as 90.7 nM.

For `CN(C)C(=O)OC[C@H](c1ccc(Cl)c(-c2ncc(-c3ccccc3)s2)c1)N1C(=N)N[C@@](c2cc(F)cc(F)c2)(C2CC2)C1=O` [Compound 2], the EC50 was 3000 nM.

Consider `CC(C)(C)C[C@]1(c2ccc(-c3cnn(C(F)F)c3)cc2)NC(=N)N([C@H](COC(=O)NC2(C)CC2)c2ccc(Cl)c(-n3ccnn3)c2)C1=O` [Compound 260], for which the EC50 came to 32.4 nM.

With `C[C@@H](C(=O)NC[C@H](c1ccc(Cl)c(-c2ncnn2C(F)F)c1)N1C(=N)N[C@](CC(C)(C)C(F)(F)F)(c2ccc(-c3cnn(C4CC4)n3)cc2)C1=O)C(F)(F)F` [Compound 162], the EC50 is 21 nM.

As to `CC(C)(C)C[C@]1(c2ccc(-c3ncccn3)cc2)NC(=N)N([C@H](COC(=O)NC2(C(F)(F)F)CC2)c2ccc(Cl)c(-n3ncnc3C(F)F)c2)C1=O` [Compound 187], the EC50 turned out to be 11.6 nM.

Consider `CC(C)(C)C[C@]1(c2ccc(-c3cnn(C(F)F)c3)cc2)NC(=N)N([C@H](COC(=O)NC2(C(F)(F)F)CC2)c2cc(F)c(Cl)c(-n3ncnc3C(F)F)c2)C1=O` [Compound 192], for which the concentration for a half-maximal effect (EC50) was 61.9 nM.

Regarding `C[C@@H](C(=O)NC[C@H](c1ccc(Cl)c(-n2ncnc2C(F)F)c1)N1C(=N)N[C@](CC(C)(C)C)(c2ccc(-c3cnn(C4CC4)n3)cc2)C1=O)C(F)(F)F` [Compound 386], the EC50 is 23.4 nM.

Take `CC(C)(C)C[C@]1(c2ccc(-c3cnn(C(F)F)c3)cc2)NC(=N)N([C@H](COC(=O)NC2CC2(F)F)c2ccc(Cl)c(-n3ncnc3C(F)F)c2)C1=O` (stereo partly shown) [Compound 211]: the EC50 is 10.8 nM.

`CC(C)(C)C[C@]1(c2ccc(-c3cnn(C4CC4)c3)cc2)NC(=N)N([C@H](COC(=O)NC2CC2)c2ccc(Cl)c(-n3cncn3)c2)C1=O` [Compound 243]: the EC50 came out at 9.11 nM.

Consider `CC(C)(C)C[C@]1(c2ccc(-c3ccccn3)cc2)NC(=N)N([C@H](COC(=O)NC(C)(C)C)c2ccc(Cl)c(-n3ncnc3C(F)F)c2)C1=O` [Compound 191], for which the EC50 came to 9.69 nM.

`[H]/N=C1\N[C@](CC(C)(C)C)(c2ccc(-c3cnn(C(F)F)c3)cc2)C(=O)N1[C@H](COC(=O)NC1CC1)c1ccc(Cl)c(-c2c[nH]cn2)c1` [Compound 30]: the half-maximal effective concentration (EC50) was determined as 120 nM.

Take `CC(C)(Cl)C[C@]1(c2ccc(-c3cnn(C(F)F)c3)cc2)NC(=N)N([C@H](COC(=O)NC2(C(F)(F)F)CC2)c2ccc(Cl)c(-c3ncnn3C(F)F)c2)C1=O` [Compound 145]: the EC50 was determined as 228 nM.

With `CC(C)(C)C[C@]1(c2ccc(-c3cnn(C(F)F)c3)cc2)NC(=N)N([C@H](CO)c2ccc(Cl)c(-c3ncnn3C3CC3)c2)C1=O` [Compound 46], the EC50 is 37.6 nM.

Regarding `CC(C)(C)C[C@]1(c2ccc(-c3ccccn3)cc2)NC(=N)N([C@H](COC(=O)NC2(C(F)(F)F)CC2)c2cc(F)c(Cl)c(-n3ncnc3C(F)F)c2)C1=O` [Compound 193], the EC50 was 88.3 nM.

As to `CC(C)(C)C[C@]1(c2ccc(-c3cnn(C(F)F)c3)cc2)NC(=N)N([C@H](COC(=O)NC(C)(CO)CO)c2ccc(Cl)c(-c3ncn[nH]3)c2)C1=O` [Compound 102], the EC50 turned out to be 196 nM.

Consider `CC(C)(C)C[C@]1(c2ccc(-n3cc(F)cn3)cc2)NC(=N)N([C@H](COC(=O)NC2(C(F)(F)F)CC2)c2ccc(Cl)c(-c3ncnn3C(F)F)c2)C1=O` [Compound 138], for which the EC50 amounted to 11.5 nM.

As to `CC(C)(C)C[C@]1(c2ccc(-c3ccsn3)cc2)NC(=N)N([C@H](COC(=O)NC2(C(F)(F)F)CC2)c2ccc(Cl)c(-n3ncnc3C(F)F)c2)C1=O` [Compound 276], the EC50 turned out to be 12.5 nM.

`CN(C)C(=O)OC[C@H](c1ccc(Cl)c(-c2ncc(-c3ccccc3)o2)c1)N1C(=N)N[C@@](c2cc(F)cc(F)c2)(C2CC2)C1=O` [Compound 4]: the EC50 worked out at 3620 nM.

Regarding `CC(C)(C)C[C@]1(c2ccc(-c3cnn(C(F)F)c3)cc2)NC(=N)N([C@H](COC(=O)NC23CC(C(F)(F)F)(C2)C3)c2ccc(Cl)c(-n3cncn3)c2)C1=O` [Compound 248], the EC50 stood at 70.3 nM.

Regarding `CC(C)(C)C[C@]1(c2ccc(-c3cnn(C(F)F)c3)cc2)NC(=N)N([C@H](COC(=O)NC(C)(C)C)c2ccc(Cl)c(-c3ncn[nH]3)c2)C1=O` [Compound 68], the concentration giving a half-maximal response (EC50) was 21.6 nM.

Turning to `CC(C)(C)C[C@]1(c2ccc(-c3cn(C4CC4)nc3F)cc2)NC(=N)N([C@H](COC(=O)NC2(C(F)(F)F)CC2)c2ccc(Cl)c(-n3ncnc3C(F)F)c2)C1=O` [Compound 318], the EC50 is 13.2 nM.

As to `CCC1(NC(=O)OC[C@H](c2ccc(Cl)c(-n3cccn3)c2)N2C(=N)N[C@](CC(C)(C)C)(c3ccc(-c4cnn(C(F)F)c4)cc3)C2=O)CC1` [Compound 259], the EC50 turned out to be 65.4 nM.

`CC(C)(C)C[C@]1(c2ccc(-c3ncccn3)cc2)NC(=N)N([C@H](COC(=O)NC(C)(C)C(F)F)c2ccc(Cl)c(-n3ncnc3C(F)F)c2)C1=O` [Compound 188]: the EC50 was 9.9 nM.

For the compound `CC(C)(C)C[C@]1(c2ccc(-c3cnn(C(F)F)c3)cc2)NC(=N)N([C@H](COC(=O)N[C@H]2C[C@@H]2C(F)F)c2ccc(Cl)c(-n3ncnc3C(F)F)c2)C1=O` [Compound 332], the EC50 was found to be 12.3 nM.
